# Data from PubChem BioAssay (NCI).
# Several values for one entry are separate records, joined by “and”; a condition that tells them apart may be missing. Equal values may be shown once.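 Cultured in 96-well plates, cells were exposed to test compound for 48 hours across five concentrations. TGI marks complete inhibition of growth.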
# Tests used:
# Experiment in all cases: NCI anticancer screen, dose series, 48 h
# [1] = system: DMS 114 small cell lung
# [2] = system: DMS 273 small cell lung
# [3] = system: HOP-18 NSCLC
# [4] = system: LXFL 529 NSCLC
# [5] = system: RXF-631 renal
Compound,TGI [1],TGI [2],TGI [3],TGI [4],TGI [5] [µM]
CC(C)(CN1CCCCC1)C(=O)CC(SCCS(=O)(=O)O)c1ccc(Br)cc1 (centres undefined),3.46 µM,3.58 µM,3.57 µM,2.7 µM,
NC1=NS(=O)(=O)N=C(N)C1=Cc1ccc([N+](=O)[O-])o1,31.9 µM,30.3 µM,31.8 µM,30.8 µM,
O=c1[nH]c(=O)n(C2CC(O)C(CO)O2)cc1C#Cc1ccc(C(F)(F)F)cc1 (centres undefined),> 100 µM,> 100 µM,> 100 µM,> 100 µM,> 100
O=C1CCC2(CCC(=O)NC2=O)C(=O)N1,> 100 µM,> 100 µM,,> 100 µM,
c1ccc(C2=NN3CN(N2)c2ccccc2OCCCOc2ccccc23)cc1,> 100 µM,> 100 µM,,> 100 µM,
Cc1nc2c(n1Cc1ccc(Cl)cc1)C(=O)c1ccccc1C2=O,,> 75 µM,,> 75 µM,
Brc1ccc(N2C[N+](c3ccc(Br)cc3)=NC(c3ccccc3)=N2)cc1,34.7 µM and 97.8 µM,21.1 µM and > 100 µM,28 µM and > 100 µM,23 µM and > 100 µM,
C/C(=N\N(C)C)C(CN(C)C)C(c1ccccc1)c1c(O)c2ccccc2oc1=O (centres undefined),> 100 µM,> 100 µM,,> 100 µM,
CCCCN(CCCC)C(=NCc1ccccc1)NC#N,,75.7 µM,> 100 µM,31.2 µM,
CC1=NN(C(=O)CC(=O)Nc2cccc(Cl)c2)C(=O)C1N=Nc1ccc(S(N)(=O)=O)cc1 (centres undefined),> 100 µM,> 100 µM,> 100 µM,> 100 µM,
O=C(c1cccs1)N(C(=S)N1CCN(c2ccccc2)CC1)c1ccccc1,> 100 µM,> 100 µM,> 100 µM,> 100 µM,
